Patent US12077503B2, “Substituted cyclic amides and their use as herbicides” (FMC CORPORATION, priority 2015, dated 2024)

Key:
Type in all cases: in vivo
[1] = test system: Galium (catchweed bedstraw, Galium aparine); experiment: Test A postemergence; details: Galium, post-emergence, 240 h, Postemergence, read-out: Plant response rating, Galium
Summary of the method: (§1)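 Treatment is preemergence as a directed soil spray after planting, or postemergence at the one- to two-leaf stage, with test chemical in a non-phytotoxic solvent mixture plus surfactant. Plants stay in the greenhouse about 10 d before visual injury scoring on a 0 to 100 scale versus untreated controls.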

[2] = test system: pigweed (Amaranthus retroflexus); experiment: Test A postemergence; details: Amaranthus retroflexus, post-emergence, 240 h, Postemergence, read-out: Plant response rating, Pigweed
Summary of the method: as §1

[3] = test system: corn (Zea mays); experiment: Test A postemergence; details: Zea mays, post-emergence, 240 h, Postemergence
Summary of the method: as §1

[4] = test system: ryegrass, Italian (Italian ryegrass, Lolium multiflorum); experiment: Test A postemergence; details: Lolium multiflorum, post-emergence, 240 h, Postemergence, read-out: Plant response rating, Ryegrass, Italian
Summary of the method: as §1

[5] = test system: wheat (Triticum aestivum); experiment: Test A postemergence; details: Triticum aestivum, post-emergence, 240 h, Postemergence, read-out: Plant response rating, Wheat
Summary of the method: as §1

[6] = test system: ragweed (common ragweed, Ambrosia elatior); experiment: Test A postemergence; details: Ambrosia artemisiifolia, post-emergence, 240 h, Postemergence, read-out: Plant response rating, Ragweed
Summary of the method: as §1

[7] = test system: giant foxtail (Setaria faberii); experiment: Test A postemergence; details: Setaria faberi, post-emergence, 240 h, Postemergence, read-out: Plant response rating, Foxtail, Giant
Summary of the method: as §1

[8] = test system: Kochia (Kochia scoparia); experiment: Test A postemergence; details: Bassia scoparia, post-emergence, 240 h, Postemergence, read-out: Plant response rating, Kochia
Summary of the method: as §1

[9] = test system: blackgrass (Alopecurus myosuroides); experiment: Test A postemergence; details: Alopecurus myosuroides, post-emergence, 240 h, Postemergence, read-out: Plant response rating, Blackgrass
Summary of the method: as §1

[10] = test system: barnyardgrass (Echinochloa crus-galli); experiment: Test A postemergence; details: Echinochloa crus-galli, post-emergence, 240 h, Postemergence, read-out: Plant response rating, Barnyardgrass
Summary of the method: as §1

[11] = test system: pigweed (Amaranthus retroflexus); experiment: Test A preemergence; details: Amaranthus retroflexus, pre-emergence, 240 h, Preemergence
[12] = test system: ryegrass, Italian (Italian ryegrass, Lolium multiflorum); experiment: Test A preemergence; details: Lolium multiflorum, pre-emergence, 240 h, Preemergence
Summary of the method: as §1

[13] = test system: ragweed (common ragweed, Ambrosia elatior); experiment: Test A preemergence; details: Ambrosia artemisiifolia, pre-emergence, 240 h, Preemergence
Summary of the method: as §1

[14] = test system: giant foxtail (Setaria faberii); experiment: Test A preemergence; details: Setaria faberi, pre-emergence, 240 h, Preemergence
Summary of the method: as §1

[15] = test system: Kochia (Kochia scoparia); experiment: Test A preemergence; details: Bassia scoparia, pre-emergence, 240 h, Preemergence
Summary of the method: as §1

[16] = test system: barnyardgrass (Echinochloa crus-galli); experiment: Test A preemergence; details: Echinochloa crus-galli, pre-emergence, 240 h, Preemergence
Summary of the method: as §1

[17] = test system: sedge, umbrella (small-flower umbrella sedge, Cyperus difformis); experiment: Test B flooded paddy test; details: Cyperus difformis, 250 g ai/ha, Flood; 0 to 100 scale where 0 is no effect and 100 is complete control; read-out: Sedge, Umbrella plant response rating
Summary of the method: (§2)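 Compound goes directly into floodwater once pots are flooded 3 cm above soil, targeting plants at two leaves; the water depth is then held for the test duration. Plants sit 13–15 d in a greenhouse and are rated visually, 100 denoting complete control.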

[18] = test system: rice (Oryra sativa); experiment: Test B flooded paddy test; details: Oryza sativa, 250 g ai/ha, Flood; 0 to 100 scale where 0 is no effect and 100 is complete control; read-out: Rice plant response rating
Summary of the method: as §2

[19] = test system: ducksalad (Heteranthera limosa); experiment: Test B flooded paddy test; details: Heteranthera limosa, 250 g ai/ha, Flood; 0 to 100 scale where 0 is no effect and 100 is complete control; read-out: Ducksalad plant response rating
Summary of the method: as §2

[20] = test system: barnyardgrass (Echinochloa crus-galli); experiment: Test B flooded paddy test; details: Echinochloa crus-galli, 250 g ai/ha, Flood; 0 to 100 scale where 0 is no effect and 100 is complete control; read-out: Barnyardgrass plant response rating
Summary of the method: as §2

[21] = 125 g ai/ha, visual injury after approximately 10 d, 0 to 100 scale where 0 is no effect and 100 is complete control
[22] = 31 g ai/ha, visual injury after approx. 10 d, 0 to 100 scale, 0 no effect, 100 complete control

O=C(Nc1cccc(F)c1F)[C@H]1C(=O)N(C2CC2)CC[C@@H]1c1ccc(F)cc1 [Compound 1003] showed a pest or weed control at 125 g/ha [1, 21] of 0%, a pest or weed control at 31 g/ha [1, 22] of 0% and a pest or weed control at 125 g/ha [2, 21] of 0%. The pest or weed control at 31 g/ha [2, 22] was 0%, the Corn plant response rating (crop injury, 0 = no effect, 100 = complete kill) at 125 g/ha [3, 21] was 0% and the Corn plant response rating (crop injury, 0 = no effect, 100 = complete kill) at 31 g/ha [3, 22] was 0%. For the same compound, the pest or weed control at 125 g/ha [4, 21] was 0%, the pest or weed control at 31 g/ha [4, 22] was 0% and the plant injury at 125 g/ha [5, 21] was 0%. The plant injury at 31 g/ha [5, 22] was 0%, the pest or weed control at 125 g/ha [6, 21] was 0% and the pest or weed control at 31 g/ha [6, 22] was 0%. For the same compound, the pest or weed control at 125 g/ha [7, 21] was 0%, the pest or weed control at 31 g/ha [7, 22] was 0% and the pest or weed control at 125 g/ha [8, 21] was 0%. For the same compound, the pest or weed control at 31 g/ha [8, 22] was 0%, the pest or weed control at 125 g/ha [9, 21] was 0% and the pest or weed control at 31 g/ha [9, 22] was 0%. It also gave a pest or weed control at 125 g/ha [10, 21] of 0%, a pest or weed control at 31 g/ha [10, 22] of 0% and a pest or weed control at 31 g/ha ([11]; 31 g ai/ha, 0 to 100 scale where 0 is no effect and 100 is complete control, read-out: Pigweed plant response rating) of 0%. The pest or weed control at 125 g/ha ([11]; 125 g ai/ha, visual injury rating after approximately 10 d, read-out: Pigweed plant response rating (0 to 100 scale, 0 is no effect, 100 is complete control)) was 0%, the pest or weed control at 31 g/ha ([12]; 31 g ai/ha, 0 to 100 scale where 0 is no effect and 100 is complete control, read-out: Ryegrass, Italian plant response rating) was 0% and the pest or weed control at 125 g/ha ([12]; 125 g ai/ha, visual injury rating after approximately 10 d, read-out: Ryegrass, Italian plant response rating (0 to 100 scale, 0 is no effect, 100 is complete control)) was 0%. The pest or weed control at 31 g/ha ([13]; 31 g ai/ha, 0 to 100 scale where 0 is no effect and 100 is complete control, read-out: Ragweed plant response rating) was 0%, the pest or weed control at 125 g/ha ([13]; 125 g ai/ha, visual injury rating after approximately 10 d, read-out: Ragweed plant response rating (0 to 100 scale, 0 is no effect, 100 is complete control)) was 0% and the pest or weed control at 125 g/ha ([14]; 125 g ai/ha, visual injury rating after approximately 10 d, read-out: Foxtail, Giant plant response rating (0 to 100 scale, 0 is no effect, 100 is complete control)) was 60%. The pest or weed control at 31 g/ha ([14]; 31 g ai/ha, 0 to 100 scale (0 no effect, 100 complete control), read-out: Plant response rating, Foxtail, Giant) was 0%, the pest or weed control at 31 g/ha ([15]; 31 g ai/ha, 0 to 100 scale where 0 is no effect and 100 is complete control, read-out: Kochia plant response rating) was 0% and the pest or weed control at 125 g/ha ([15]; 125 g ai/ha, visual injury rating after approximately 10 d, read-out: Kochia plant response rating (0 to 100 scale, 0 is no effect, 100 is complete control)) was 0%. For the same compound, the pest or weed control at 125 g/ha ([16]; 125 g ai/ha, visual injury rating after approximately 10 d, read-out: Barnyardgrass plant response rating (0 to 100 scale, 0 is no effect, 100 is complete control)) was 0%, the pest or weed control at 31 g/ha ([16]; 31 g ai/ha, 0 to 100 scale (0 no effect, 100 complete control), read-out: Plant response rating, Barnyardgrass) was 0% and the pest or weed control at 250 g/ha [17] was 0%. For the same compound, the pest or weed control at 250 g/ha [18] was 0%, the pest or weed control at 250 g/ha [19] was 0% and the pest or weed control at 250 g/ha [20] was 0%.
